Measured values taken from US20250257064A1, “TRIFLUOROMETHYL-SUBSTITUTED SULFONAMIDE AS BCL-2-SELECTIVE INHIBITOR” (Chia Tai Tianqing Pharmaceutical Group Co., Ltd., priority 2018, published 2025).

Tests used:
[1] = target: T1, BCL-XL/BAK (Homo sapiens, UniProt Q07817); experiment: Screening on inhibitory activity for BCL-XL/BAK binding (Cisbio HTRF kit)
T1 construct: purchased Cisbio
Procedure, shortened: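 Tag1-BCL-XL and Tag2-BAK (2 nM and 80 nM before mixing) were combined with compounds at final 2000–0.488 nM (4-fold, 7 points, duplicates) for 15 min at 25° C. Eu3+ anti-Tag1 and XL665 anti-Tag2 were then added for ≥2 h at 25° C. HTRF (620/665 nm) gave IC50 by four-parameter fit.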

[2] = In vitro stability in mouse liver microsomes; type: in vitro ADME; conditions: 1 μM
Description: Experimental Example 3: In Vitro Stability in Liver Microsome
300 μL of the final incubation system contains 30 μL of liver microsomes (protein concentration: 5 mg/mL), 30 μL of NADPH+MgCl2, 3 μL of the test compound (in acetonitrile), and 237 μL of PBS buffer (pH 7.4), wherein the proportion of the organic solvent (acetonitrile) is 1% (volume ratio). Two duplicate samples were prepared for each specie (mouse, rat and human), and each sample was 0.3 mL. Each tube which was added with 270 μL of a mixed solution of substrate and enzyme, and NADPH, after being pre-incubated at 37° C. for 5 min, was added with 30 μL of NADPH+MgCl2 and mixed. Then 50 μL of the mixture was taken at 0 min, 15 min, 30 min and 60 min, and added with 300 μL of glacial acetonitrile containing an internal standard to terminate the reaction.
50 μL of the incubated sample was added with 300 μL of glacial acetonitrile containing an internal standard (20 ng/mL diazepam) for precipitation, vortexed for 5 min, and centrifuged (13,000 rpm, 20° C.) for 10 min. 70 μL of supernatant was taken and diluted with 70 μL of ultrapure water. After being mixed well, 1 μL of the resulting sample was injected for analysis.

[3] = Pharmacokinetics in rats; type: in vivo; conditions: Sprague-Dawley, rat, plasma, po, SD rats, IG 5 mg/kg; for AUC(0-t): read-out: AUC(0-24 h); for MRT last: read-out: MRT(0-t)
Description: 4.1 Pharmacokinetics in Rats
SD rats weighing 180-220 g were randomly grouped with 3 rats in each group after 3-5 days of adaptive feeding, and intragastrically administered with compounds 1-1 and 8-1 at a dosage of 5 mg/kg.
The animals to be tested (SD rats) were fasted for 12 h before administration and fed 4 h after administration, and water was freely drunk before, after and during the experiment.
After intragastric administration, about 0.2 mL of blood was collected from the orbit at 0 min, 15 min, 30 min, 1 h, 2 h, 4 h, 6 h, 8 h, 10 h and 24 h, and after anticoagulation with EDTA-K2, blood samples were transferred to a centrifuge within 30 min, and centrifuged at 4000 rpm for 10 min at 4° C. to separate the plasma. All plasma samples were collected and immediately stored at −20° C. for testing.
50 μL of the plasma sample to be tested was added with 300 μL of acetonitrile solution containing an internal standard (20 mg/mL diazepam), shaken and mixed well for 5 min, and centrifuged at 13,000 rpm for 10 min. 75 μL of supernatant was taken and diluted with 75 μL of ultrapure water. After being mixed well, 2 μL of the resulting sample was taken for LC/MS/MS determination, and a chromatogram was recorded.
Oral exposure of the compounds disclosed herein was evaluated by in vivo pharmacokinetic experiments in rats.

[4] = tested on: human platelet Caspase-3 activity; experiment: Human platelet toxicity experiment (Caspase-3 activity assay); type: cell-based; conditions: compound concentration 1 μM, 90 min; data normalized, reference ABT-199
Procedure, shortened: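 Washed human platelets from heparinized whole blood (2-3×10^7 cells/mL) were exposed to compound at 2.5, 2, 1 or 0.5 μM final for 90 min at 37 °C, then lysed. Caspase-3 activity was measured as Ac-DEVD-AMC cleavage (ex 360/em 460 nm, read every 10 min ×6) and taken as the fitted slope, normalized to ABT-199.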

T1 sequence (Q07817 whole entry, species assumed): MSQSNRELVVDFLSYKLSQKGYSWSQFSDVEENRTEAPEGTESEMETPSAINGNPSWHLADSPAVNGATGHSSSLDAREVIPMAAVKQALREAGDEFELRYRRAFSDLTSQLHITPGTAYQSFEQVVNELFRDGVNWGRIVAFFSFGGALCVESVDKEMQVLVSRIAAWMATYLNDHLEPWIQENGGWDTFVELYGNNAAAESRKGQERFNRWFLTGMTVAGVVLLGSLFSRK

Row | SMILES | IC50 [1] [µM] | Mouse Residual content after 60 min (%) [2] [%] | AUC(0-inf) [3] [µg·h/mL] | Cmax [3] [µg/mL] | Tmax [3] [h] | half-life [3] [h] | AUC(0-t) [3] [µg·h/mL] | MRT last [3] [h] | human platelet Caspase-3 activity, Slope [4]
1 | CC1(C)CCC(CN2CCN(c3ccc(C(=O)NS(=O)(=O)c4ccc(NC[C@H]5COCCO5)c([N+](=O)[O-])c4)c(Oc4cnc5[nH]ccc5c4)c3)CC2)=C(c2ccc(C(F)(F)F)cc2Cl)C1 [Compound 8-1] | 0.155 | 73.9 | 6.56 ± 1.8 | 0.739 ± 0.226 | 4 | 7.62 ± 2.78 | 5.97 ± 2.02 | 7.35 ± 0.45 | 0.59
2 | CC1(C)CCC(CN2CCN(c3ccc(C(=O)NS(=O)(=O)c4ccc(NCC5CCOCC5)c([N+](=O)[O-])c4)c(Oc4cnc5[nH]ccc5c4)c3)CC2)=C(c2ccc(C(F)(F)F)cc2Cl)C1 [Compound 1-1, 4-(4-{[2-(2-chloro-4-trifluoromethylphenyl)-4,4-dimethylcyclohex-1-enyl]methyl}-piperazin-1-yl)-N-({3-nitro-4-[(tetrahydro-2H-pyran-4-ylmethyl)amino]phenyl}sulfonyl)-2-(1H-pyrrolo[2,3-b]pyridin-5-yloxy)-benzamide] | 0.133 | 78.9 | 4.46 ± 1.33 | 0.378 ± 0.0835 | 4 | 8.73 ± 0.31 | 3.71 ± 0.848 | 8.95 ± 4.99 | 0.67
